Measurements reported in patent US20160331754A1, “THERAPIES FOR TREATING CANCERS” (GILEAD SCIENCES, INC., priority 2014, published 2016).
Several values for one entry are separate records, joined by “and”; a condition that tells them apart may be missing. Equal values may be shown once.

Test system: WIL2-S
Experiment: ADCC LDH release assay, purified NK cells against WIL2-S target cells
Type: cell-based, human
Details: for Percentage of ADCC, 5 nM Compound B / Percentage of ADCC, 50 nM Compound B / Percentage of ADCC, 500 nM Compound B: antibody concentration 10 μg/mL; for Percentage of maximum ADCC, obinutuzumab: obinutuzumab 10 μg/mL; for Percentage of maximum ADCC, rituximab: rituximab 10 μg/mL
[1] = Compound B 0.98 nM, FcγRIIIa 158F/F
[2] = Compound B 0.98 nM, FcγRIIIa 158F/V
[3] = Compound B 0.98 nM, FcγRIIIa 158V/V
[4] = Compound B 1.95 nM, FcγRIIIa 158F/F
[5] = Compound B 1.95 nM, FcγRIIIa 158F/V
[6] = Compound B 1.95 nM, FcγRIIIa 158V/V
[7] = Compound B 3.91 nM, FcγRIIIa 158F/F
[8] = Compound B 3.91 nM, FcγRIIIa 158F/V
[9] = Compound B 3.91 nM, FcγRIIIa 158V/V
[10] = Compound B 7.81 nM, FcγRIIIa 158F/F
[11] = Compound B 7.81 nM, FcγRIIIa 158F/V
[12] = Compound B 7.81 nM, FcγRIIIa 158V/V
[13] = Compound B 15.63 nM, FcγRIIIa 158F/V
[14] = Compound B 15.63 nM, FcγRIIIa 158V/V
[15] = Compound B 31.25 nM, FcγRIIIa 158F/V
[16] = Compound B 31.25 nM, FcγRIIIa 158V/V

CC[C@H](Nc1ncnc2[nH]cnc12)c1nc2cccc(F)c2c(=O)n1-c1ccccc1 [Compound B, (S)-2-(1-((9H-purin-6-yl)amino)propyl)-5-fluoro-3-phenylquinazolin-4(3H)-one] was tested, and the “Percentage of ADCC, 5 nM Compound B” value (E:T 3:1) was 58% and 56% and 53% and 49% and 46% and 44% and 39%, the “Percentage of ADCC, 5 nM Compound B” value (E:T 10:1) was 72% and 75% and 73% and 79% and 74% and the “Percentage of ADCC, 5 nM Compound B” value (E:T 30:1) was 81% and 82% and 79% and 76% and 80% and 77% and 85% and 84%. For the same compound, the “Percentage of ADCC, 50 nM Compound B” value (E:T 3:1) was 54% and 58% and 50% and 39% and 37% and 44% and 42%, the “Percentage of ADCC, 50 nM Compound B” value (E:T 10:1) was 72% and 74% and 69% and 77% and 76% and 73% and the “Percentage of ADCC, 50 nM Compound B” value (E:T 30:1) was 76% and 81% and 80% and 79% and 75% and 85% and 84%. For the same compound, the “Percentage of ADCC, 500 nM Compound B” value (E:T 3:1) was 50% and 53% and 36% and 34% and 39% and 35% and 38%, the “Percentage of ADCC, 500 nM Compound B” value (E:T 10:1) was 67% and 73% and 71% and 66% and 70% and the “Percentage of ADCC, 500 nM Compound B” value (E:T 30:1) was 76% and 79% and 77% and 72% and 75% and 81% and 82%. For the same compound, the “Percentage of maximum ADCC, obinutuzumab” value [1] was 91% and 104%, the “Percentage of maximum ADCC, obinutuzumab” value [2] was 103% and 104% and the “Percentage of maximum ADCC, obinutuzumab” value [3] was 101% and 99%. For the same compound, the “Percentage of maximum ADCC, rituximab” value [1] was 104% and 107%, the “Percentage of maximum ADCC, rituximab” value [2] was 100% and 105% and the “Percentage of maximum ADCC, rituximab” value [3] was 102% and 99%. For the same compound, the “Percentage of maximum ADCC, obinutuzumab” value [4] was 89% and 106%, the “Percentage of maximum ADCC, obinutuzumab” value [5] was 104% and 112% and the “Percentage of maximum ADCC, obinutuzumab” value [6] was 107% and 100%. For the same compound, the “Percentage of maximum ADCC, rituximab” value [4] was 103% and 111%, the “Percentage of maximum ADCC, rituximab” value [5] was 105% and 111% and the “Percentage of maximum ADCC, rituximab” value [6] was 105% and 104%. The “Percentage of maximum ADCC, obinutuzumab” value [7] was 84% and 108%, the “Percentage of maximum ADCC, obinutuzumab” value [8] was 105% and 110% and the “Percentage of maximum ADCC, obinutuzumab” value [9] was 103% and 91%. The “Percentage of maximum ADCC, rituximab” value [7] was 97% and 109%, the “Percentage of maximum ADCC, rituximab” value [8] was 102% and 110% and the “Percentage of maximum ADCC, rituximab” value [9] was 102% and 105%. For the same compound, the “Percentage of maximum ADCC, obinutuzumab” value [10] was 89% and 107%, the “Percentage of maximum ADCC, obinutuzumab” value [11] was 109% and 107% and the “Percentage of maximum ADCC, obinutuzumab” value [12] was 94% and 90%. For the same compound, the “Percentage of maximum ADCC, rituximab” value [10] was 91% and 108%, the “Percentage of maximum ADCC, rituximab” value [11] was 104% and 110% and the “Percentage of maximum ADCC, rituximab” value [12] was 100%. The “Percentage of maximum ADCC, obinutuzumab” value (Compound B 15.63 nM, FcγRIIIa 158F/F) was 80% and 108%, the “Percentage of maximum ADCC, obinutuzumab” value [13] was 106% and 109% and the “Percentage of maximum ADCC, obinutuzumab” value [14] was 93% and 90%. For the same compound, the “Percentage of maximum ADCC, rituximab” value [13] was 100% and 108%, the “Percentage of maximum ADCC, rituximab” value [14] was 98% and 101% and the “Percentage of maximum ADCC, obinutuzumab” value (Compound B 31.25 nM, FcγRIIIa 158F/F) was 85% and 107%. For the same compound, the “Percentage of maximum ADCC, obinutuzumab” value [15] was 107%, the “Percentage of maximum ADCC, obinutuzumab” value [16] was 95% and 82% and the “Percentage of maximum ADCC, rituximab” value [15] was 100% and 104%. The “Percentage of maximum ADCC, rituximab” value [16] was 94% and the “Percentage of maximum ADCC, obinutuzumab” value (Compound B 62.5 nM, FcγRIIIa 158F/F) was 88% and 108%.
